What all share (format): cell-based
In one experiment the test system is MDA-MB-231 cells. The experiment can be described thus: DNA fragmentation analysis (DNA Apoptosis Ladder Kit, gel electrophoresis). The note with it: MDA-MB-231 cells, 50, 75, and 100 μg/mL; FIG. 9. How it is done:
(§1) In this assay, the effect of E2.2 and F1 compounds as anti proliferation and E2.2 compound as apoptosis inducer against MDA-MB-231 cancer cells will be observed. MDA-MB-231 cells were cultured in supplemented medium cells, and then incubated at temperature 37° C., 5% CO2.
Apoptosis is an active process of cell death marked with DNA chromosome cleavage, chromatin condensation, and also DNA fragmentation. In this experiment, it was observed the effect of E2.2 compound addition toward the formation of DNA fragmentation as one of apoptosis indicators. Cells were cultured in the plates. After incubation for 24 hours, it was added with E2.2 compound in various concentrations. DNA fragmentation determination was performed using DNA Apoptosis Ladder Kit.

Another experiment deals with Bax mRNA expression. The experiment can be described thus: Bax RT-PCR in MDA-MB-231 cells. The note with it: various concentrations, serum free medium, FIGS. 11a, 11b. As for the experimental part:
(§2) BCl2 and Bax genes are genes acting in apoptosis process. To identify BCl2 and Bax mRNA expressions, RT-PCR (reverse-transcription PCR) was performed. MDA-MB-231 cancer cells were grown in plates and added with E2.2 compound samples as a single agent in various concentrations. Experiment condition was performed in serum free medium. RNA total was isolated from MDA-MB-231 cancer cells. RNA isolation products were quantified using spectrophotometer and visualized by agarose gel electrophoresis technique. The RNAs were then used in RT-PCR process using specific primers. RT-PCR process was performed in PCR machine with optimized condition.

A further experiment concerns BCl2 mRNA expression. The experiment can be described thus: BCl2 RT-PCR in MDA-MB-231 cells. The note with it: various concentrations, serum free medium, FIGS. 10a, 10b. As for the experimental part:
as §2

The subject of the next experiment is MDA-MB-231 cancer cells. The experiment can be described thus: Anti-proliferation assay of MDA-MB-231 cancer cells (MTT). The note with it: for effect on proliferation of MDA-MB-231 cells (percentage of alive cancer cell): with increase of concentration, FIG. 7 (F1), FIG. 8 (E2.2). As for the experimental part:
as §1
This assay was performed in 96-well plates. Each well contained certain cancer cell density. After incubation for 24 hours, medium was changed into serum free medium, after that it was added with E2.2 compound sample as a single agent in various concentrations, so was with F1 compound. Cells were then re-incubated and after that the number of alive cells after treatment was determined by cell death determination assay. Absorbance value was read in microplate reader. After the absorbance value was converted with standard curve, the number of alive and death cells can be obtained.
Percentage of the number of alive cells in each treatment can be counted by counting the number of alive cells at wells that received treatment divided with the number of alive cells at healthy control and multiplied with 100%. % The number of alive cells=B/A×100% Notes: A is the number of alive cells at healthy control, and B is the number of alive cells that received treatment. IC50 value is a number showing a sample concentration that causes death as much as 50% in a population. Such value is obtained using BioStat statistical program. b. DNA Fragmentation Analysis Method

Molecules are shown by their SMILES. Converted amounts (≈) assume the structure as drawn.

Consider two compounds from patent US8569382B2, “Isolated compounds from Phaleria macrocarpa as anti-cancer agents” (PT. Dexa Medica, priority 2008, dated 2013).

As usually defined, the IC50 is the point on the concentration scale where inhibition reaches its midpoint. Higher therefore signals a need for much substance.

With `COc1cc(O)c(C(=O)c2ccc(O)cc2)c(O)c1` [E2.2, 2,4′,6-trihydroxy-4-methoxybenzophenone], in the experiment with MDA-MB-231 cells, the “formation of DNA fragments (apoptosis marker)” value is on record as “apoptosis inducer effect”. Further, the “Bax mRNA level” value in the experiment on Bax mRNA expression is reported as “upregulation”. Moreover, in the experiment with BCl2 mRNA expression, the “BCl2 mRNA expression” value was “downregulation”. This compound also yielded a concentration for half-maximal inhibition (IC50) in the experiment on MDA-MB-231 cancer cells (Homo sapiens, MDA-MB-231 cells, MTT result, serum free medium, BioStat statistical program) of 36.9 µg/mL (≈ 142 µM). In addition, in the experiment on MDA-MB-231 cancer cells, the “effect on proliferation of MDA-MB-231 cells (percentage of alive cancer cell)” value is listed as “anti proliferation effect”.
For `COc1cc(O)c(C(=O)c2ccc(O)cc2)c(O[C@@H]2O[C@H](CO)[C@@H](O)[C@H](O)[C@H]2O)c1` [F1, 4′,6-di-hydroxy-4-methoxybenzophenone-2-O-β-D-glycopyranoside], the IC50 value in the experiment with MDA-MB-231 cancer cells (MDA-MB-231 cells, MTT result, serum free medium, BioStat statistical program) is 65.80 µg/mL (≈ 156 µM). Also, the “effect on proliferation of MDA-MB-231 cells (percentage of alive cancer cell)” value in the experiment on MDA-MB-231 cancer cells is on record as “anti proliferation effect”.
